This is an account of results in patent US9802941B2, “Compounds and methods for inhibiting histone demethylases” (Gilead Sciences, Inc., priority 2014, dated 2017).

What all share (format): biochemical
One assay concerns the target T1, KDM4C (JMJD2C) (Homo sapiens, UniProt Q9H3R0).
T1 construct: KDM4C; BRIC, Denmark; 1-349; E. coli; host or cells: E. coli
T1 sequence (Q9H3R0 1-349): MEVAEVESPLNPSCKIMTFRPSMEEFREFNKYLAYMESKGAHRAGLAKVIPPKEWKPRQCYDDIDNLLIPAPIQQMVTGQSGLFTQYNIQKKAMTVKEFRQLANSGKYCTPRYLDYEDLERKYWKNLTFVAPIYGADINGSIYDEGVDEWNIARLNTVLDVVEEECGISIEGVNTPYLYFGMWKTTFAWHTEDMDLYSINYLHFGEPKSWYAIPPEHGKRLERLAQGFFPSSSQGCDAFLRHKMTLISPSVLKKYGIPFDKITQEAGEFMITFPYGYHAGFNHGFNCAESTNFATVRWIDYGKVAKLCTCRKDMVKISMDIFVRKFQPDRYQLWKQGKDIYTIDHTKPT
Put plainly: Histone lysine demethylase AlphaLISA assay, KDM4C. Summed up: (§1)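 In vitro demethylase inhibition measured by AlphaLISA. Enzymes preincubated with compound 10 minutes in 50 mM Hepes (pH 7.4-8.0), 0.003-0.01% Tween-20, 0.1% BSA, 5 μM (NH4)2Fe(SO4)2 before substrate addition at room temperature.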

The target of the next assay is T2, KDM2B (FBXL10) (Homo sapiens, UniProt Q8NHM5).
T2 construct: KDM2B; BPS,; 1-650; Bac; purchased BPS Bioscience, US; host or cells: baculovirus system
T2 sequence (Q8NHM5 1-650): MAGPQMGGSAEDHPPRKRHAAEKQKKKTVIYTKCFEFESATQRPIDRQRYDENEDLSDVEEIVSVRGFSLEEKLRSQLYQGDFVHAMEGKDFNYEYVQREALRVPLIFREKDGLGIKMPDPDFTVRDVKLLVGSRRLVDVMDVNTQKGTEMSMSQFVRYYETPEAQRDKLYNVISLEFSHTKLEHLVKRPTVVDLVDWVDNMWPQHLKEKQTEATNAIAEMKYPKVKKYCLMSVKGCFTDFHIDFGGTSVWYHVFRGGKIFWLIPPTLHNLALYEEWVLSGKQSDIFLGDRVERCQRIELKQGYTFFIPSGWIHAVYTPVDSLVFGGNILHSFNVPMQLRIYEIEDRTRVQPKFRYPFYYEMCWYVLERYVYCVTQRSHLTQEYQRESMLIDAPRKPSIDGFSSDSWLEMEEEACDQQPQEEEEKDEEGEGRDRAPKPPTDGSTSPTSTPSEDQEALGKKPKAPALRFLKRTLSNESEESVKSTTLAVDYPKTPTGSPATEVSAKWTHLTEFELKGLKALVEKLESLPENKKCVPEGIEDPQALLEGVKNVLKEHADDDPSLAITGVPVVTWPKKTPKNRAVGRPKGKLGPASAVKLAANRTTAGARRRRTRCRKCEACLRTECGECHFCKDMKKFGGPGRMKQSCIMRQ
Put plainly: Histone lysine demethylase AlphaLISA assay, KDM2B. The essentials: as §1
In general terms: Alpha assays give light when donor and acceptor beads are brought close together.

The next assay deals with T3, PHF8 (KDM7) (Homo sapiens, UniProt Q9UPP1).
T3 construct: KDM7 (PHF8); BRIC; 1-1322; Bac
Put plainly: Histone lysine demethylase AlphaLISA assay, PHF8. The essentials: as §1

In a further assay the target is T4, KDM5B (PLU-1) (Homo sapiens, UniProt Q9UGL1).
T4 construct: BRIC; 1-809; E. coli; host or cells: E. coli
T4 sequence (Q9UGL1 1-809): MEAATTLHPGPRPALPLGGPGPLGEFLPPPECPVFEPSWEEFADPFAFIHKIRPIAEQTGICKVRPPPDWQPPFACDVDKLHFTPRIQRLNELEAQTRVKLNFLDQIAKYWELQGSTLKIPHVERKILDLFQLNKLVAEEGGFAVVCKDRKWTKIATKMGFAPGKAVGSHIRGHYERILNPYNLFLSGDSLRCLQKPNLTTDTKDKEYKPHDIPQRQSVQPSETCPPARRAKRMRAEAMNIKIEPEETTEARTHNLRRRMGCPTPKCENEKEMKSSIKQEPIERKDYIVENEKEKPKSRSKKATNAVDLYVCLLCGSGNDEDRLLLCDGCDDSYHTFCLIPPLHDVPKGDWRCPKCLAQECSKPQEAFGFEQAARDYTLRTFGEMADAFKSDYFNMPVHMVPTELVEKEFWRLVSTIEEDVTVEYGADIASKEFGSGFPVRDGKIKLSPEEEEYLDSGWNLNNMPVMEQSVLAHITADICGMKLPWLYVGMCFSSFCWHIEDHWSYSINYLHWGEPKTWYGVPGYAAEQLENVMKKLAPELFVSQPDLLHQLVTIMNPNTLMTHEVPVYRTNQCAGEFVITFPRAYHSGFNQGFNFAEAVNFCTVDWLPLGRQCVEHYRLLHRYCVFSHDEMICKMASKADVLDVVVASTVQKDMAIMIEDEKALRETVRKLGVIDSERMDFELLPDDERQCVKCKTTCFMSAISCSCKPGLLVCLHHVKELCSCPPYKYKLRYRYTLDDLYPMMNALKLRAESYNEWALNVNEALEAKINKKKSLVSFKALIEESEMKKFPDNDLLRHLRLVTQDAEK
Briefly: Histone lysine demethylase AlphaLISA assay, KDM5B. Summed up:
as §1

Where [1] appears, read: AlphaLISA assay, read-out: HDME Inhibition KDM4C (IC50).
The mark [2] stands for this setting: AlphaLISA, in vitro, read-out: HDME Inhibition KDM4C.
Where [3] appears, read: AlphaLISA, in vitro, read-out: HDME Inhibition KDM2B.
Where [4] appears, read: AlphaLISA assay, read-out: HDME Inhibition PHF8 (IC50).
[5] abbreviates: AlphaLISA, in vitro, read-out: HDME Inhibition PHF8.
The mark [6] stands for this setting: AlphaLISA assay, read-out: HDME Inhibition KDM5B (IC50).
Where [7] appears, read: AlphaLISA, in vitro, read-out: HDME Inhibition KDM5B.

Read-outs that look alike come from different tables or passages of the source.

T3 sequence (Q9UPP1 37-440 limits assumed): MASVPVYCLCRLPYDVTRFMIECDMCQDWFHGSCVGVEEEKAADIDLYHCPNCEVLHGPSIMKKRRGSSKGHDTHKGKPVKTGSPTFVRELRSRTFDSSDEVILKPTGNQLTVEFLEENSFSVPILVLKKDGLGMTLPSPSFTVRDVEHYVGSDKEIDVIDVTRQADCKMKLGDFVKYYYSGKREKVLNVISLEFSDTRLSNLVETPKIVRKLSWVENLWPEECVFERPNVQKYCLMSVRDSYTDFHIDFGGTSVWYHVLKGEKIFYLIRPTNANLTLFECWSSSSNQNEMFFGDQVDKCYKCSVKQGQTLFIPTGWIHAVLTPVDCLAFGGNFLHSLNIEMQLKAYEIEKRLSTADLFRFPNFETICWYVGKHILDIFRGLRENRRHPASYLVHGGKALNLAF

On to `Cc1ccc(OCCC(C)C)c(CCNCc2cc(C(=O)O)cc(C)n2)c1` [Compound 89, 2-methyl-6-[({2-[5-methyl-2-(3-methylbutoxy)phenyl]ethyl}amino)methyl]pyridine-4-carboxylic acid], for which the IC50 on KDM4C (JMJD2C) (setting [1]) was more than 10 µM; on KDM4C (JMJD2C) (setting [2]), more than 10 µM; at KDM2B (FBXL10) (setting [3]), 2.3 µM; at PHF8 (KDM7) (setting [4]), more than 10 µM; on PHF8 (KDM7) (setting [5]), more than 10 µM; on KDM5B (PLU-1) (setting [6]), more than 10 µM. On KDM5B (PLU-1) (setting [7]), the IC50 was more than 10 µM.
As for `CCCc1nnc(CNCc2cc(C(=O)O)cc(CO)n2)n1Cc1ccc(F)cc1` [Compound 73, 2-{[({4-[(4-fluorophenyl)methyl]-5-propyl-4H-1,2,4-triazol-3-yl}methyl)amino]methyl}-6-(hydroxymethyl)pyridine-4-carboxylic acid], the IC50 at KDM4C (JMJD2C) (setting [1]) was more than 10 µM; at KDM4C (JMJD2C) (setting [2]), more than 10 µM; on KDM2B (FBXL10) (setting [3]), 0.252 µM; on PHF8 (KDM7) (setting [5]), 1.65 µM; on KDM5B (PLU-1) (setting [6]), more than 10 µM; on KDM5B (PLU-1) (setting [7]), more than 10 µM.
Regarding `O=C(O)c1cc(CO)nc(CNCc2nnc(-c3ccccc3)n2CCCc2ccccc2)c1` [Compound 99, 2-(hydroxymethyl)-6-[({[5-phenyl-4-(3-phenylpropyl)-4H-1,2,4-triazol-3-yl]methyl}amino)methyl]pyridine-4-carboxylic acid], the IC50 was more than 10 µM on KDM4C (JMJD2C) (setting [1]); more than 10 µM at KDM4C (JMJD2C) (setting [2]); more than 10 µM at KDM2B (FBXL10) (AlphaLISA assay, read-out: HDME Inhibition KDM2B (IC50)); more than 10 µM at KDM2B (FBXL10) (setting [3]); more than 10 µM on PHF8 (KDM7) (setting [4]); more than 10 µM at PHF8 (KDM7) (setting [5]). The IC50 against KDM5B (PLU-1) turned out to be 8.41 µM.
In the case of `O=C(O)c1cc(CO)nc(CNCc2nc(CO)cn2Cc2ccc(F)cc2)c1` [Compound 88, 2-{[({1-[(4-fluorophenyl)methyl]-4-(hydroxymethyl)-1H-imidazol-2-yl}methyl}amino]methyl}-6-(hydroxymethyl)pyridine-4-carboxylic acid], the IC50 amounted to 3.47 µM on KDM4C (JMJD2C) (setting [2]), 0.585 µM on KDM2B (FBXL10) (setting [3]), 1.27 µM at PHF8 (KDM7) (setting [5]) and 0.246 µM against KDM5B (PLU-1).
On to `CC(O)c1nnc(CNCc2cc(C(=O)O)cc(CO)n2)n1Cc1ccc(F)cc1` (centres unmarked) [Compound 77, 2-{[({4-[(4-fluorophenyl)methyl]-5-(1-hydroxyethyl)-4H-1,2,4-triazol-3-yl}methyl)amino]methyl}-6-(hydroxymethyl)pyridine-4-carboxylic acid], for which the IC50 is more than 10 µM on KDM4C (JMJD2C) (setting [1]); more than 10 µM at KDM4C (JMJD2C) (setting [2]); 0.379 µM on KDM2B (FBXL10) (setting [3]); 1.09 µM on PHF8 (KDM7) (setting [5]); more than 10 µM at KDM5B (PLU-1) (setting [6]); more than 10 µM at KDM5B (PLU-1) (setting [7]).
Turning to `Cc1cc(C(=O)O)cc(CNCc2nnc(C3CCC3)n2Cc2ccc(F)cc2)n1` [Compound 45, 2-{[({5-cyclobutyl-4-[(4-fluorophenyl)methyl]-4H-1,2,4-triazol-3-yl}methyl)amino]methyl}-6-methylpyridine-4-carboxylic acid], the IC50 on KDM4C (JMJD2C) (setting [1]) is more than 10 µM; on KDM4C (JMJD2C) (setting [2]), more than 10 µM; at KDM2B (FBXL10) (setting [3]) it was 0.501 µM; on PHF8 (KDM7) (setting [5]), 0.491 µM; at KDM5B (PLU-1) (setting [6]), more than 10 µM; at KDM5B (PLU-1) (setting [7]) it was more than 10 µM.
Regarding `COc1ccc(OCc2ccccc2)c(CNCc2cc(C(=O)O)cc(C)n2)n1` [Compound 92, 2-[({[3-(benzyloxy)-6-methoxypyridin-2-yl]methyl}amino)methyl]-6-methylpyridine-4-carboxylic acid], the IC50 at KDM4C (JMJD2C) (setting [1]) was more than 10 µM; on KDM4C (JMJD2C) (setting [2]), more than 10 µM; at KDM2B (FBXL10) (setting [3]) it was 0.053 µM; at PHF8 (KDM7) (setting [5]), 1.23 µM; on KDM5B (PLU-1) (setting [6]), more than 10 µM; at KDM5B (PLU-1) (setting [7]) it was more than 10 µM.
For `C=C(C)c1cnc(CNCc2cc(C(=O)O)cc(C)n2)n1Cc1ccc(F)cc1` [Compound 103, 2-{[({1-[(4-fluorophenyl)methyl]-5-(prop-1-en-2-yl)-1H-imidazol-2-yl}methyl)amino]methyl}-6-methylpyridine-4-carboxylic acid], the IC50 on KDM4C (JMJD2C) (setting [1]) was more than 10 µM; on KDM4C (JMJD2C) (setting [2]) it was more than 10 µM; on KDM2B (FBXL10) (setting [3]), 0.056 µM; on PHF8 (KDM7) (setting [5]), 0.16 µM; at KDM5B (PLU-1) (setting [6]) it was more than 10 µM; on KDM5B (PLU-1) (setting [7]) it was more than 10 µM.
Turning to `Cc1cc(C(=O)O)cc(CNCc2nnc(C(C)O)n2Cc2ccc(F)cc2)n1` (centres unmarked) [Compound 85, 2-{[({4-[(4-fluorophenyl)methyl]-5-(1-hydroxyethyl)-4H-1,2,4-triazol-3-yl}methyl)amino]methyl}-6-methylpyridine-4-carboxylic acid], the IC50 on KDM4C (JMJD2C) (setting [1]) is more than 10 µM; at KDM4C (JMJD2C) (setting [2]), more than 10 µM; at KDM2B (FBXL10) (setting [3]), 0.461 µM; on PHF8 (KDM7) (setting [5]) it was 1.86 µM; at KDM5B (PLU-1) (setting [6]), more than 10 µM; at KDM5B (PLU-1) (setting [7]), more than 10 µM.
Turning to `O=Cc1cn(Cc2ccc(F)cc2)c(CNCc2cc(C(=O)O)cc(CO)n2)n1` [Compound 111, 2-{[({1-[(4-fluorophenyl)methyl]-4-formyl-1H-imidazol-2-yl}methyl)amino]methyl}-6-(hydroxymethyl)pyridine-4-carboxylic acid], the IC50 was more than 10 µM on KDM4C (JMJD2C) (setting [1]); more than 10 µM on KDM4C (JMJD2C) (setting [2]); 0.823 µM on KDM2B (FBXL10) (setting [3]); 5.1 µM at PHF8 (KDM7) (setting [5]); 1.07 µM at KDM5B (PLU-1).
In the case of `Cc1nnc(CNCc2cc(C(=O)O)cc(CO)n2)n1Cc1ccc(F)cc1` [Compound 72, 2-{[({4-[(4-fluorophenyl)methyl]-5-methyl-4H-1,2,4-triazol-3-yl}methyl)amino]methyl}-6-(hydroxymethyl)pyridine-4-carboxylic acid], the IC50 was more than 10 µM at KDM4C (JMJD2C) (setting [1]); more than 10 µM on KDM4C (JMJD2C) (setting [2]); 0.283 µM on KDM2B (FBXL10) (setting [3]); 0.529 µM on PHF8 (KDM7) (setting [5]); more than 10 µM at KDM5B (PLU-1) (setting [6]); more than 10 µM at KDM5B (PLU-1) (setting [7]).
